These are literature values, as cited in patent US8802735B2, “(Z)-2-cyano-3-hydroxy-but-2-enoic acid-(4'-trifluormethylphenyl)-amide tablet formulations with improved stability” (Sanofi, priority 2009, dated 2014).

Structures are written as SMILES.

The target in the data set is dihydroorotate dehydrogenase (Homo sapiens, UniProt Q02127). Conditions: Bruneau J-M, et al., Biochem. J. 1998.
Sequence of dihydroorotate dehydrogenase (Q02127 whole entry): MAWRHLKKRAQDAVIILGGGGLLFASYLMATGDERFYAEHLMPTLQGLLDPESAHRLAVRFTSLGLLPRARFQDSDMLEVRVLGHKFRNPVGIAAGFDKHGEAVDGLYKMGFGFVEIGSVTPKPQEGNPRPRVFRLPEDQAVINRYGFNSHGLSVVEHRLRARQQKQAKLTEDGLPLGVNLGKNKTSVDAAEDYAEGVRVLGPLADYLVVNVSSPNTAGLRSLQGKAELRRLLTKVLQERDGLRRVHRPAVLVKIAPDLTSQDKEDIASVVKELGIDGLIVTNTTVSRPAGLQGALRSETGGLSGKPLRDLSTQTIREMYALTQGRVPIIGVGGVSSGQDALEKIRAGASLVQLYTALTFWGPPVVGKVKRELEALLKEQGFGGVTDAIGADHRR

For the molecule `C/C(O)=C(\C#N)C(=O)Nc1ccc(C(F)(F)F)cc1` [Teriflunomide, (Z)-2-cyano-3-hydroxy-but-2-enoic acid-(4′-trifluoromethylphenyl)-amide], the “inhibition of the enzyme dihydroorotate dehydrogenase” value is “inhibits”.
